Data taken from ChEMBL document CHEMBL5726853, “3-acetylenyl-pyrazole-pyrimidine derivative, and preparation method therefor and uses thereof” (2019).

Biological target: Proto-oncogene tyrosine-protein kinase Src (Homo sapiens, UniProt P12931)
Sequence (P12931 2-536 limits assumed): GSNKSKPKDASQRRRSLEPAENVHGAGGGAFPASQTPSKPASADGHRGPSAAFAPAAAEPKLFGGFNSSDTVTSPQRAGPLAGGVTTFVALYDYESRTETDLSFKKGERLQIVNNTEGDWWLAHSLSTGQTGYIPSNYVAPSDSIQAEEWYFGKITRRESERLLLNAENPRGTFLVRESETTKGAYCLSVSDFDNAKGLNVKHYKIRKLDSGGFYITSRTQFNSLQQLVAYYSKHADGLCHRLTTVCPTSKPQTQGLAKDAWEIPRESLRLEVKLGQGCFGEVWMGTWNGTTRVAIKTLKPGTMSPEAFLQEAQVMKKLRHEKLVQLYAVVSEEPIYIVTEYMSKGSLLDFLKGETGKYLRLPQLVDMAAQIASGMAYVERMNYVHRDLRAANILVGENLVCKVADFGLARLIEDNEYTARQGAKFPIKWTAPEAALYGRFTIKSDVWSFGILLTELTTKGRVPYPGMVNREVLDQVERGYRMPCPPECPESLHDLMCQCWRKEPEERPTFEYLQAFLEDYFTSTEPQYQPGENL

- IC50: 4 nM
SMILES: Cc1ccc(NC(=O)c2ccc(CN3CCN(C)CC3)cc2)cc1C#Cc1nn(C(C)C)c2ncnc(N)c12
